Values joined by “and” are separate entries in the source; they are usually repeats but may differ in a detail not shown here. Equal entries are not always repeated. Where two headings read alike, the source gives them in different places.
Experiments:
[1] = test system: subcutaneously transplanted human liver cancer LM3 tumor; parameters: species or system BALB/c nude mice; details: mouse, in vivo, ip
[2] = mouse, in vivo, ip
[3] = test system: subcutaneously transplanted human liver cancer LM3 tumor; parameters: species or system BALB/c nude mice; details: mouse, in vivo
[4] = mouse, in vivo

O=P1(N(CCCl)CCCl)NCCCO1 (centres unmarked) [cyclophosphamide]
Tumor inhibition rate (%) ([1]; 10 mg/kg): 33.21% and 33.21 ± 1.41%
Tumor weight ([1]; 10 mg/kg): 0.50 ± 0.02 g
Tumor inhibition rate (%) ([1]; 20 mg/kg): 62.67% and 62.67 ± 5.81%
Tumor weight ([1]; 20 mg/kg): 0.28 ± 0.06 g
Spleen index ([2]; 10 mg/kg): 1.08 ± 0.12 mg/g
Spleen quality ([2]; 10 mg/kg): 0.19 ± 0.01 g
body weight at the end of the experiment ([2]; 10 mg/kg): 18.58 ± 0.41 g
Spleen index ([2]; 20 mg/kg): 1.01 ± 0.08 mg/g
Spleen quality ([2]; 20 mg/kg): 0.17 ± 0.01 g
body weight at the end of the experiment ([2]; 20 mg/kg): 17.54 ± 0.28 g
Tumor inhibition rate (%) [3]: 79.33% and 79.33 ± 0.10%
Tumor weight [3]: 0.21 ± 0.10 g
Spleen quality [4]: 0.12 ± 0.02 g
body weight at the end of the experiment [4]: 18.91 ± 0.46 g
